Data set [1] is described as follows: Time course analysis of mutant enzymes (thymidine phosphorylation). The following applies: 30° C., 0-30 minutes; adjusted to protein synthesis. Format: biochemical. The protocol:
For the high-activity mutant enzymes, unlabeled translation products were diluted 1/9 and incubated for 0, 5, 10, 20, or 30 minutes at 30° C.
The low-activity mutants were diluted 1/5, and the rate of phosphorylation as a function of time was also determined.

Data set [2] is classed as biochemical. The following applies: for thermal stability after 42° C. preincubation compared to HSVTKII: cell-free translation products. Here is the method: To substantiate this observation, cell-free translation products were incubated at 42° C. for increasing times prior to being assayed for enzyme activity. Briefly, cell free translation (“CFT”) products of each high-activity mutant, -RNA, and HSVTKII samples were diluted 1/9 and incubated for 0, 5, 10, and 20 minutes at 42° C. The preincubated samples were then assayed for 5 minutes (P155A/F161V and F1611) or 20 minutes (-RNA, HSVTKII, F161C, and D162E). The percent of activity remaining was determined with the untreated samples set at 100%. […] Because F161C lost greater than 90% of enzyme activity within the first 20 minutes at 42° C., shorter incubation periods at 42° C. were performed […].
Low-activity mutant CFT products were diluted 1/5 and incubated for 0, 20, 40, or 60 minutes at 42° C. The preincubated samples were then assayed in triplicate for the thymidine phosphorylation for 60 minutes. The percent of activity remaining was determined using the untreated (time 0) sample as 100%.

The nature of data set [3]: Substrate specificity assay of cell-free translation products, ACV. It counts as biochemical. The source says:
(§1) No significant difference in phosphorylation efficiency was observed between pT7:MCC and pT7:HSVTKII when thymidine (1.3-fold), deoxycytidine (1.3-fold), GCV (0.8-fold), ACV (0.95-fold), or AZT (1.1-fold) were used as substrate. Furthermore, Sanderson et al. (J. Mol. Biol. 202:917-919, 1988) reported that the Km for thymidine and ATP and the Vmax of TK purified from E. coli harboring pHETK2 (the parent plasmid of pMCC) and HSV-1-infected cells were indistinguishable. Therefore, the alterations observed in the properties of the mutant TKs can be attributed to the nucleotide substitutions within the target region and that any differences between the vectors (pT7:MCC and pT7:HSVTKII) exerted only minor changes in catalytic properties.
(§2) Three of the mutants (P155A/F161V, F161I and F161C) were assayed in triplicate for the relative levels of phosphorylation using thymidine, deoxycytidine, ACV, GCV, or AZT as substrates. Briefly, forty-eight […] of each tritiated substrate was used in each assay reaction. Translation products were diluted for each nucleoside assay as follows (translation/H2O): 1/100, thymidine; 2/3, deoxycytidine, GCV, and AZT; 4/1, ACV. Each set of assays was incubated for 2 hours at 30° C. and the amount of phosphorylated product determined.

The next data set deals with KY895. In words: Secondary screen: colony formation on acyclovir, AZT, TK selection and LB plates. It counts as cell-based, E. coli. Also noted: key: ++: the same number of colonies were observed as compared to control plates; +: fewer (<20% those observed with pMCC) and generally smaller (˜50% smaller diameter) colonies were observed as compared to control plates; −: no colonies were observed. The note with it: for colonies on AZT plates: 1 μg/mL thymidine+0.05 μg/mL AZT; for colonies on AZT plates / colonies on ACV plates / colonies on TK selection plates, 37° C.: 37° C.; for colonies on ACV plates: 1 μg/mL thymidine+1 μg/mL acyclovir; for colonies on LB plates: LB+carb50 plates. The protocol:
Mutant cultures were also spread onto duplicate TK selection and LB+carb50 plates. One set of TK selection plates and LB+carb50 plates were incubated at 42° C. All other plates were incubated at 37° C. After 16-24 hours the plates were scored.

The nature of data set [4]: Substrate specificity assay of cell-free translation products, deoxycytidine. Format: biochemical.
From the text: as §1, §2

Data set [5] is described as follows: Substrate specificity assay of cell-free translation products, thymidine. It counts as biochemical.
From the text: as §1, §2

For another data set, the system named is BHK tk. In words: Sensitivity of guanylate kinase transfectant pools to ACV in TK expressing clones. Format: cell-based, hamster. The note with it: guanylate kinase expression in the presence of wild-type TK. The protocol:
pREP8-7, pREP8-7:hgmk and pREP8-7:mgmk are used to transfect BHK tk, TK-transfected clone C3 and 75-transfected clone D4. Histidinol is used to select pools of stable transfectants and to isolate individual clones.
As in Example 8, pools of transfectants are placed in 96 well microtiter dishes at 1000 cells/well. Eight replicates are incubated for three days in the presence of various GCV or ACV concentrations.

Data set [6] can be described thus: Kinetic analysis of fusion proteins, GMP. The following applies: purified protein. Format: biochemical.

On to D162E, for which, in data set [1], the “TK activity in time course analysis compared to wild-type” value (shortened to “TK activity … compared to wild-type”) is on record as “no difference in activities when compared to the wild-type TK enzyme activities”.
In the case of F161C, in data set [2] (cell-free translation product), the “activity loss after 5 minutes at 42° C.” value is given as about 85% and the “enzyme activity lost within the first 20 minutes at 42° C.” value was “greater than 90%”. Further, the “TK activity … compared to wild-type” value in data set [1] was “no difference in activities when compared to the wild-type TK enzyme activities”. Moreover, the “ACV phosphorylation over HSVTKII” value in data set [3] is on record as 2 fold. In addition, in the data set on KY895, the “colonies on AZT plates” value was “−”; the “colonies on ACV plates” value is “+ (fewer (<20% those observed with pMCC) and generally smaller (˜50% smaller diameter) colonies were observed as compared to control plates)”; the “colonies on TK selection plates, 37° C.” value is reported as “++”; the “colonies on TK selection plates, 42° C.” value is on record as “++”. The “colonies on LB plates” value with KY895 is on record as “++”. In addition, in data set [4], the “phosphorylation of deoxycytidine over the wild-type enzyme” value came out at 2.8 fold.
For the substance F161I, the “phosphorylation of thymidine relative to HSVTKII” value in data set [5] was 2.2 fold. In data set [1], the “TK activity … compared to wild-type” value is “statistically higher affinity for thymidine than the wild-type TK”. Moreover, in the data set with KY895, the “colonies on AZT plates” value is “+ (fewer (<20% those observed with pMCC) and generally smaller (˜50% smaller diameter) colonies were observed as compared to control plates)”; the “colonies on ACV plates” value was “+ (fewer (<20% those observed with pMCC) and generally smaller (˜50% smaller diameter) colonies were observed as compared to control plates)”; the “colonies on TK selection plates, 37° C.” value was “++”; the “colonies on TK selection plates, 42° C.” value was “++”. Also, the “colonies on LB plates” value in the data set with KY895 is recorded as “++”. The “phosphorylation of deoxycytidine over the wild-type enzyme” value in data set [4] is recorded as 1.9 fold.
Take F161I/R163H: the “thermal stability after 42° C. preincubation compared to HSVTKII” value in data set [2] is “equivalent to HSVTKII”. Also, in the data set with KY895, the “colonies on AZT plates” value was “++”; the “colonies on ACV plates” value is reported as “++”; the “colonies on TK selection plates, 37° C.” value is “++”; the “colonies on TK selection plates, 42° C.” value is “+ (fewer (<20% those observed with pMCC) and generally smaller (˜50% smaller diameter) colonies were observed as compared to control plates)”. The “colonies on LB plates” value with KY895 was “++”.
For F161L, in data set [2], the “thermal stability after 42° C. preincubation compared to HSVTKII” value was “more thermolabile that HSVTKII”. Also, the “TK activity … compared to wild-type” value in data set [1] was “moderate ability to phosphorylate thymidine, albeit at a much reduced rate from HSVTKII”. Further, in the data set on KY895, the “colonies on AZT plates” value is recorded as “++”; the “colonies on ACV plates” value is “++”; the “colonies on TK selection plates, 37° C.” value is “++”; the “colonies on TK selection plates, 42° C.” value is “−”. Besides, in the data set with KY895, the “colonies on LB plates” value was “++”.
In the case of “Guanylate kinase: guanylate kinase expressed from pREP8-7 constructs in wild-type TK clone C3 (human or murine not stated)”, the “increased sensitivity to ACV relative to TK expression alone” value with BHK tk is on record as “approximately 2 fold”.
For the substance “P155A/F161V: HSV-1 TK, proline to alanine mutation at position 155 and phenylalanine to valine at position 161”, the “phosphorylation of thymidine relative to HSVTKII” value in data set [5] is 2.6 fold. The “TK activity … compared to wild-type” value in data set [1] is “statistically higher affinity for thymidine than the wild-type TK”. In addition, the “ACV phosphorylation over HSVTKII” value in data set [3] is reported as 2.4 fold. In the data set with KY895, the “colonies on AZT plates” value is “+ (fewer (<20% those observed with pMCC) and generally smaller (˜50% smaller diameter) colonies were observed as compared to control plates)”; the “colonies on ACV plates” value is “++”; the “colonies on TK selection plates, 37° C.” value is on record as “++”; the “colonies on TK selection plates, 42° C.” value is “++”. For the same substance, the “colonies on LB plates” value in the data set on KY895 is on record as “++”. Further, in data set [4], the “phosphorylation of deoxycytidine over the wild-type enzyme” value was determined as 2.8 fold.
On to “gmk: wild-type guanylate kinase (murine gmk used in the fusions)”, for which the Michaelis-Menten constant (Km) (as a rule, the concentration of substrate that gives half-maximal velocity) in data set [6] was determined as 25 µM.

The values are drawn from patent US8163528B2, “Nucleic acid molecules encoding thymidine kinase fusion proteins” (Darwin Molecular Corporation, priority 1997, dated 2012).
